Test results from patent publication US10329304B2, “Compounds and methods for inhibition of hedgehog signaling and phosphodiesterase” (Vanderbilt University, priority 2014, dated 2019).
Where “and” joins values, the source holds several entries; their conditions need not be identical. Equal values may be shown once. Read-outs that look alike come from different tables or passages of the source.

Assays:
H82 = test: Cell killing EC50 in H82 lung cancer cells (Table 10); format: cell-based; settings: human cancer cells; for EC50: NCI-H82
Experimental: It is anticipated that compounds disclosed herein could serve as an anti-tumor, anti-angiogenic, anti-metastatic, agent in the treatment of cancer. To this end, a series of clinically relevant cancer lines were assayed and the cell-killing EC50s for compounds according to the subject matter disclosed herein are provided in Table 10.

PC3 = test: Cell viability assay (CellTiter-Blue, 72 hr); format: cell-based; settings: PC-3; human cancer cells; read-out: CELL KILLING EC50 (μM) Prostate PCx3
Experimental: (§1) Cancer cell lines were seeded in 96 well tissue culture plate at a low density (10,000 cells per well) and treated with varying concentrations of Eggmanone. After 72 hr incubation, CellTiter-Blue Cell Viability Assay (Promega, Madison, Wis.) was then performed according to manufacturer's protocol. Absorbance was then measured in a Modulus Microplate reader (Promega, Madison, Wis.) at 590 nm and compared to cells treated with DMSO.

PDE4D2 = target: T1, PDE4D2 (Homo sapiens, UniProt Q08499); test: In vitro PDE assay; format: biochemical
T1 construct: purchased BPS Biosciences (San Diego, Calif.)
Experimental: (§2) In vitro PDE profiling and dose-response assays were performed by BPS Biosciences (San Diego, Calif.). Kinetic Mechanism of inhibition studies were conducted by Millipore (St. Louis, Mo.). In brief, the PDE assay measures fluorescent polarization of FAM-AMP as FAM-cAMP is converted to FAM-AMP by PDE), the binding agent.
(§3) A series of dilutions of the test compound were prepared with 10% DMSO in assay buffer and 5 μl of the dilution was added to a 50 μl reaction so that the final concentration of DMSO is 1% in all of reactions. All of the PDE enzymatic reactions were conducted in duplicate at room temperature for 60 minutes in a 50 μl mixture containing PDE assay buffer (10 mM Tris-HCl, pH7.4, 10 mM MaCl2, 0.05% Tween 20), 100 nM FAM-cAMP, a PDE enzyme and a test compound.
(§4) After the enzymatic reaction, 100 μl of a binding solution (1:100 dilution of the binding agent, which contains the nano beads that recognize FAM-AMP, with the binding agent diluent) was added to each reaction and the reaction was performed at room temperature for 60 minutes. Fluorescence intensity was measured at an excitation of 485 nm and an emission of 528 nm using a Tecan Infinite M1000 microplate reader. Assays done by Millipore were conducted similarly with changes noted below: […]

PDE4D3 = target: T2, PDE4D3 (Homo sapiens, UniProt Q08499); test: In vitro PDE assay; format: biochemical
T2 construct: purchased BPS Biosciences (San Diego, Calif.); kinetic studies by Millipore (St. Louis, Mo.)
Experimental: as §2, §3, §4

MCF7 = test: Cell viability assay (CellTiter-Blue, 72 hr); format: cell-based; settings: human cancer cells; for EC50: MCF7, read-out: CELL KILLING EC50 (μM) Breast MCF7
Experimental: as §1
as §1, with “density” for “density (10,000 cells per well)”, “compounds identified in Table 7.” for “Eggmanone.”

B16F11 = test: Cell viability assay (CellTiter-Blue, 72 hr); format: cell-based, Mouse; settings: Mus musculus, B16-F10; Table 10; read-out: CELL KILLING EC50 (μM) Melanoma B16F10
Experimental: as §1
as §1, with “density” for “density (10,000 cells per well)”, “compounds identified in Table 7.” for “Eggmanone.”

[1] = tested on: Hedgehog signaling (Gli-Luc reporter); test: Hh Gli-Luciferase reporter assay in Shh-Light2 cells; format: cell-based, mouse; settings: Mus musculus, Shh Light2; for EC50: read-out: Shh Light2 Luc EC50
Experimental: For Hh signaling assays, Shh-Light2 cells stably transfected with Gli-Luciferase reporter construct were used along with Shh-conditioned media, as previously described^7. Alternatively, 3 μM purmorphamine or 20 nM Smoothened agonist (SAG) (Santa Cruz Biotechnology, Santa Cruz, Calif.) was used to induce Hh signaling. Reporter cells were seeded in 96-well plates and incubated overnight with the various concentrations of eggmanone and Shh-conditioned media. To assess the effects of overexpression of Gli-2, PDE4D3 and DN-PDE4D3 on Hh signaling, mammalian expression vectors containing these constructs were transfected into Shh-Light2 cells in 96-well plates using Fugene6 (Roche), according to manufacturer's instructions. The transfected or Shh-stimulated cells were incubated overnight with the various concentrations of compound. The cells were then lysed, and cell extracts were subjected to Steady-Glo luciferase assay (Promega) according to manufacturer's instructions. The results were normalized to cell titer, as determined using Cell Titer-Glo luminescence assay (Promega).

DaoY = test: Cell viability assay (CellTiter-Blue, 72 hr); format: cell-based, Human; settings: Daoy; human cancer cells; read-out: CELL KILLING EC50 (μM) Medulloblastoma DaoY
Experimental: as §1
as §1, with “density” for “density (10,000 cells per well)”, “compounds identified in Table 7.” for “Eggmanone.”

MDA-MB- 231 = test: Cell viability assay (CellTiter-Blue, 72 hr); format: cell-based, Human; settings: MDA-MB-231; human cancer cells; read-out: CELL KILLING EC50 (μM) Breast MDA-231
Experimental: as §1
as §1, with “density” for “density (10,000 cells per well)”, “compounds identified in Table 7.” for “Eggmanone.”

DU145 = test: Cell viability assay (CellTiter-Blue, 72 hr); format: cell-based, Human; settings: DU-145; human cancer cells; read-out: CELL KILLING EC50 (μM) Prostate DU145
Experimental: as §1
as §1, with “density” for “density (10,000 cells per well)”, “compounds identified in Table 7.” for “Eggmanone.”

SW480 = test: Cell viability assay (CellTiter-Blue, 72 hr); format: cell-based, Human
Experimental: as §1
as §1, with “density” for “density (10,000 cells per well)”, “compounds identified in Table 7.” for “Eggmanone.”

RWGT2 = test: Cell viability assay (CellTiter-Blue, 72 hr); format: cell-based, Human; settings: human cancer cells; read-out: CELL KILLING EC50 (μM) Lung Squam, NSCLC RWGT2
Experimental: as §1
as §1, with “density” for “density (10,000 cells per well)”, “compounds identified in Table 7.” for “Eggmanone.”

RKO = test: Cell viability assay (CellTiter-Blue, 72 hr); format: cell-based, Human; settings: for EC50: RKO
Experimental: as §1
as §1, with “density” for “density (10,000 cells per well)”, “compounds identified in Table 7.” for “Eggmanone.”

HeLa = test: Cell viability assay (CellTiter-Blue, 72 hr); format: cell-based, Human; settings: human cancer cells, read-out: CELL KILLING EC50 (μM) Cervix HeLa
Experimental: as §1
as §1, with “density” for “density (10,000 cells per well)”, “compounds identified in Table 7.” for “Eggmanone.”

HCT116 = test: Cell viability assay (CellTiter-Blue, 72 hr); format: cell-based, Human; settings: HCT-116; human cancer cells; read-out: CELL KILLING EC50 (μM) Colon HTC116
Experimental: as §1
as §1, with “density” for “density (10,000 cells per well)”, “compounds identified in Table 7.” for “Eggmanone.”

PDE4D = PDE4D (Homo sapiens, UniProt Q08499); test: PDE4 inhibition assay (PDE4D IC50); format: biochemical; settings: read-out: PDE4D IC50
Experimental: as §2, §3
After the enzymatic reaction, 100 μl of a binding solution (1:100 dilution of the binding agent, which contains the nano beads that recognize FAM-AMP, with the binding agent diluent) was added to each reaction and the reaction was performed at room temperature for 60 minutes. Fluorescence intensity was measured at an excitation of 485 nm and an emission of 528 nm using a Tecan Infinite M1000 microplate reader. Assays done by Millipore were conducted similarly with changes noted below:
Hedgehog signaling inhibition and PDE4 inhibition of various compounds disclosed herein was assayed as described herein above.

[2] = SW480, human cancer cells, read-out: CELL KILLING EC50 (μM) Colon SW480
[3] = human cancer cells, read-out: CELL KILLING EC50 (μM) Colon RKO

T1 sequence (Q08499 303-809): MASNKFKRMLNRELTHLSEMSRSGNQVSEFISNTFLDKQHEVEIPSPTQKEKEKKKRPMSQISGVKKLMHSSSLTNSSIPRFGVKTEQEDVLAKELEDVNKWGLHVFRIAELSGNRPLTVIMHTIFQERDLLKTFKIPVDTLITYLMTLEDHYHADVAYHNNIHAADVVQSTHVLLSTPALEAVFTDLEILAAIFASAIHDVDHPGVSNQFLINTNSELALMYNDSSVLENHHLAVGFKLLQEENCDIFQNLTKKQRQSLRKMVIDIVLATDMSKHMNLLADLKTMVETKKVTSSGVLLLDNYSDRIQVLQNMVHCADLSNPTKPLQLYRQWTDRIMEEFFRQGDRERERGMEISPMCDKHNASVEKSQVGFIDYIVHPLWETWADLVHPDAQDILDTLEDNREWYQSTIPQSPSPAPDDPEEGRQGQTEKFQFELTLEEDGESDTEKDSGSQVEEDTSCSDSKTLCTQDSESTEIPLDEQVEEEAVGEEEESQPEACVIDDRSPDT
T2 sequence (Q08499 1-673 isoform Q08499-2): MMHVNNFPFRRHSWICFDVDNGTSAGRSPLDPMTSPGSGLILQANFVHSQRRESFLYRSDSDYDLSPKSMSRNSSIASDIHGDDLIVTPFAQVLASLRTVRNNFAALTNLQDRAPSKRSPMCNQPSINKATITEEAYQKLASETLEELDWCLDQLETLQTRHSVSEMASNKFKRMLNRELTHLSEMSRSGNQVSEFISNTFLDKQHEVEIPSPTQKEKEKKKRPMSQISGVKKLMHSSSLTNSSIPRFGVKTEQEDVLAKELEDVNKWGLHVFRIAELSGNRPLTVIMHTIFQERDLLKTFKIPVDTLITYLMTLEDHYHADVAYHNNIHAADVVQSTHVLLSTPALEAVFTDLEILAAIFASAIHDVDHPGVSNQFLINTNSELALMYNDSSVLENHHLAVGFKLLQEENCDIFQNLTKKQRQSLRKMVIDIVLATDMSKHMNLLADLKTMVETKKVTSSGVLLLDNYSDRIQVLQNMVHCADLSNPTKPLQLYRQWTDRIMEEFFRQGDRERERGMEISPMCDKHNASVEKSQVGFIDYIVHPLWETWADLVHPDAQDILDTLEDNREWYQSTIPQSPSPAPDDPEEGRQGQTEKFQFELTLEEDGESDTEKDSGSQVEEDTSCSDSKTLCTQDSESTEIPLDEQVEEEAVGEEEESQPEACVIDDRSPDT
Sequence of PDE4D (Q08499 1-673 isoform Q08499-2): as above

SMILES	IC50 (PDE4D2; Table 9A) [µM]	IC50 (PDE4D3; Table 9A) [µM]	EC50 ([1]; Table 9A) [µM]	EC50 ([1]; Table 9B) [µM]	CELL KILLING EC50 (μM) Lung H82 (H82)	EC50 (PC3) [µM]	EC50 (B16F11) [µM]	EC50 (DaoY) [µM]	EC50 (MDA-MB- 231) [µM]	EC50 (DU145) [µM]	EC50 (SW480; [2]) [µM]	EC50 (RWGT2) [µM]	EC50 (HeLa) [µM]	EC50 (HCT116) [µM]	EC50 (H82) [µM]	EC50 (MCF7) [µM]	EC50 (RKO; [3]) [µM]	other results
C=C(C)Cn1c(SCC(=O)c2ccc(-c3ccccc3)cc2)nc2sc3c(c2c1=O)CCCC3 [Formula 1KXQ]	> 100	> 100	> 20		UnCh	41.1	28.7	46.8	> 100	0.029	44	80.9	12.2	12				CELL KILLING EC50 (μM) Breast MCF7 (MCF7): UnCh; CELL KILLING EC50 (μM) Colon RKO (RKO; human cancer cells): UnCh
C=C(C)Cn1c(SCC(=O)N2Cc3ccccc3C2)nc2sc3c(c2c1=O)CCCC3 [Formula 1KMT]	46	30	> 20		UnCh	74	61.7	58.2	68.3	32.4	4.89	51.1	49.7	89.2		1.08	75.6	
C=CCn1c(SCC(=O)N2CCN(C)CC2)nc2sc3c(c2c1=O)CCCC3 [Formula 1KN7]	1.7	1.8	5 to 10		UnCh	45.7	25.8	58.6	10.3	91.4	0.0574	28.4	27.5	21.3			8.39	CELL KILLING EC50 (μM) Breast MCF7 (MCF7): UnCh; IC50 (PDE4D): 2.1 µM and 2.08 µM; IC50 [1]: 10 µM; EC50 (SW480; 72 h, read-out: EC50 (50% reduction of viable cell count at 72 hours), SW480, Human Colorectal Adenocarcinoma): 0.057 µM; EC50 (RKO; 72 h, read-out: EC50 (50% reduction of viable cell count at 72 hours), Human Colon Carcinoma): 8.39 µM

More lines, main results first:

IC50 (PDE4D2; Table 9A) [µM]	IC50 (PDE4D3; Table 9A) [µM]	EC50 ([1]; Table 9A) [µM]	EC50 ([1]; Table 9B) [µM]	SMILES	CELL KILLING EC50 (μM) Lung H82 (H82)	EC50 (PC3) [µM]	EC50 (B16F11) [µM]	EC50 (DaoY) [µM]	EC50 (MDA-MB- 231) [µM]	EC50 (DU145) [µM]	EC50 (SW480; [2]) [µM]	EC50 (RWGT2) [µM]	EC50 (HeLa) [µM]	EC50 (HCT116) [µM]	EC50 (H82) [µM]	EC50 (MCF7) [µM]	EC50 (RKO; [3]) [µM]	other results
			4.6 to 9.5	C=CCn1c(SCC(=O)c2ccc(Cl)s2)nc2sc(C)c(C)c2c1=O [HI499]		202	46	177	> 100	48.8	0.69	45.8	441	28.1	> 100	2.67	35.7	
			< 1	C=CCn1c(SCC(=O)c2ccccc2)nc2scc(-c3ccccc3)c2c1=O [HI696]		> 100	0.0066	2.95	1.2	> 100	2.6	64.9	3.75	3.2	> 100	> 100	> 100	IC50 (PDE4D2; Table 9B): 7.4 µM; IC50 (PDE4D3; Table 9B): 14 µM
			> 10	Cn1c(SCC(=O)c2ccc(F)cc2)nc2sc3c(c2c1=O)CCCC3 [HI302]		> 100	16	26.6	18.7	0.078	3.3	22.9	20.2	21.9	> 100	> 100	0.0096	
			> 10	CCCCn1c(SCC(=O)c2ccccc2)nc2sc3c(c2c1=O)CCC3 [HI352]		0.03	109	100	84.5	98.1	0.287	73.8	114	74.7	> 100	> 100	100	IC50 (PDE4D3; Table 9B): 20 µM
			> 10	C=CCn1c(SCC(=O)c2ccccc2)nc2sc(C)cc2c1=O [HI277]		> 100	> 100	247	186	180	0.03	30.5	5.11	136	> 100	> 100	> 100	
